The record followed here is PMC3997483, “Aminostyrylbenzofuran Directly Reduces Oligomeric Amyloid-β and Reverses Cognitive Deficits in Alzheimer Transgenic Mice” (PLoS ONE, 2014).

Each structure is given as a SMILES string. Where two headings read alike, the source gives them in different places. Marks after values point to notes of the source that are not given here.

Broadly, the Cmax is the peak of the concentration-time curve. For orientation: Tmax means the time at which the peak concentration occurs. The half-life is the time in which the quantity being followed falls by half. A lower half-life goes with rapid decline. A word on the amount remaining: it is the share of the starting amount still present when the sample was taken. A word on the LD50: it is the dose at which mortality reaches 50%. A lower LD50 goes with greater toxicity. A word on the MRT last: it is the average time that molecules of a dose stay in the body. One may read the AUC(0-inf) as total exposure, with the tail of the curve extrapolated. A low value points to less exposure.

A short description of data set [1]: Plasma and brain pharmacokinetics (BBB penetration) after PO in rats. The format is in vivo. The conditions noted are these: SD, rat, rats PO 2.5 mg/kg. The procedure: (§1) Pharmacokinetics profile of KMS88009 was obtained using ICR mice, SD rats, beagle dogs and cynomolgus monkeys. Animals were fasted overnight before KMS88009 administration. Mice were divided into 2 groups to receive KMS88009 as a single dose of 2.1 mg/kg intravenous (IV) bolus or 10 mg/kg orally (PO) by gavage. Additionally, KMS88009 was administered orally to estimate the BBB penetration in mice (10, 30 and 100 mg/kg). […] Dog received KMS88009 either as an IV bolus (1 mg/kg) via the great saphenous vein or by oral gavage (4 mg/kg). KMS88009 was administrated to monkeys as an IV bolus (1 mg/kg) via the femoral vein or by oral gavage (4 mg/kg). Vehicle for IV and PO administration was DMSO/tween-20/saline (3.3∶[…]∶79.6). All animals (n = 3 per group) were sacrificed and concentration of KMS88009 in plasma and brain were measured at 1/12, 1/4, 1/2, 1, 2, 4, 10 and 24 hr after IV administration and at 1/2, 1, 2, 4, 10 and 24 hr after PO administration. Brain samples were weighed and Daunce-homogenized in 10-fold volume of ice-chilled 4% bovine serum albumin (BSA) solution at room temperature. Plasma and brain homogenates were kept frozen at −70°C until analysis. The levels of KMS88009 were determined by the LC-MS/MS analysis. Pharmacokinetic parameters, time to the maximum concentration (Tmax), maximum concentration (Cmax), elimination half-life (T1/2), volume of distribution (Vd), clearance (Cl) and mean residual time (MRT), of KMS88009 were calculated based on plasma concentration-time data by a non-compartmental method using WinNonlin Version 5.2 (Pharsight, USA). Area under the curve from 0 to 24 hr (AUC0-24h) and area under the curve from 0 to infinity (AUCINF) were obtained by linear and log linear trapezoidal summations.

The test system of data set [2] is Aβ oligomers. As to the kind of experiment: Western blot (6E10) of hippocampus soluble fraction, prophylactic trial. The format is in vivo, mouse. The conditions noted are these: soluble fraction of hippocampal homogenates, TG mice. (In general: A western blot detects proteins with antibodies after separation by electrophoresis.)
A short description of data set [3]: Metabolic stability in liver microsomes. The format is in vitro ADME. The settings on record: rat liver microsomes. Background: Liver microsomes are a subcellular fraction often used to study metabolism.
Data set [4] in a line: Single dose oral toxicity study. The settings on record: SD, rat, in vivo, po. The format is in vivo. The procedure:
(§2) KMS88009 was orally administered by gavage at dose levels of 0 (vehicle), 1,000 and 2,000 mg/kg. Each group consisted of 3 rats. Vehicle was DMSO/tween-20/saline (3.3∶3.3∶93.4) mixture. Administration volume of vehicle and KMS88009 was 10 mL/kg. Mortality, physical abnormalities and signs of pain/distress were daily observed in all animals. Body weight of each animal was measured before the administration and on the 1st, 4th, 8th, 11th and 14th days.
(§3) All data for single and 2-week repeated oral dose toxicity studies were expressed as the mean ± SD Difference between control and treated groups were evaluated with one-way analysis of variance (ANOVA) followed by Dunnett's test. Value P<0.05 was taken as being statistically significant. Statistical analyses were performed using GraphPad Prism software (USA).

In data set [5] the test system is SD rats. As to the kind of experiment: Single dose oral toxicity study. Type of data set: in vivo. The settings on record: rats. The procedure: as §2, §3
Data set [6] in a line: Pharmacokinetics IV/PO in dogs. The settings on record: for AUC(0-t): read-out: AUC0–24h. Type of data set: in vivo, beagle dogs. The procedure: as §1, with “[…].” for “All animals (n = 3 per group) were sacrificed and concentration of KMS88009 in plasma and brain were measured at 1/12, 1/4, 1/2, 1, 2, 4, 10 and 24 hr after IV administration and at 1/2, 1, 2, 4, 10 and 24 hr after PO administration.”

Data set [7] in a line: Metabolic stability in liver microsomes. Type of data set: in vitro ADME. The conditions noted are these: mouse liver microsomes.
[8] abbreviates: read-out: Remaining % of parent molecule at 60 min.

For `COc1ccc2cc(C=Cc3ccc(N(C)C)cc3)oc2c1` [KMS88009, 6-methoxy-2-(4-dimethylaminostyryl) benzofuran], the Cmax turned out to be 1310 ng/g in data set [1] (brain) and 32.8 ± 9.8 ng/mL in data set [6] (beagle, dog PO 4 mg/kg, plasma). Also, the Tmax in data set [1] (plasma, same data as Table 3) is 1.7 h; in data set [6] (beagle, plasma, dog PO 4 mg/kg), 1 h. Moreover, the AUC(0-t) was found to be 908 ng·h/mL in data set [1] (plasma, same data as Table 3, read-out: AUC0–24h); 112 ± 43.4 ng·h/mL in data set [6] (beagle, dog IV 1 mg/kg, plasma); 97.1 ± 14 ng·h/mL in data set [6] (beagle, dog PO 4 mg/kg, plasma). Besides, the “Aβ oligomer species affected (western blot)” value in data set [2] was “prevented the accumulation of low-molecular-weight (3-mer) and high-molecular-weight (55 to 180 kDa) Aβ oligomeric species”. The half-life at 5 µM in data set [3] was determined as 0.9733 ± 0.00667 h; in data set [7], 1.088 ± 0.01 h. Further, the amount remaining at 1 h, 5 µM in data set [3] (setting [8]) is 61.2 ± 0.2%; in data set [7] (setting [8]), 52.4 ± 0.3%. This compound also came in with an LD50 at 14 days in data set [4] greater than 2000 mg/kg. For the same compound, the results for the “Mortality (dead animals / total number of animals)” value in data set [5] (single PO 1,000 mg/kg) and in data set [5] (single PO 2,000 mg/kg) were 0 / 3 ^a and 0 / 3, respectively. Moreover, the MRT last in data set [6] (beagle, plasma, dog IV 1 mg/kg) amounted to 2.9 ± 0.6 h; in data set [6] (beagle, plasma, dog PO 4 mg/kg), 3.8 ± 0.4 h. Further, the Vd in data set [6] (beagle, plasma, dog IV 1 mg/kg) is 115 ± 61.1 L/kg. This compound also had a clearance in data set [6] (beagle, plasma, dog IV 1 mg/kg) of 158 mL/min/kg. Besides, the half-life in data set [6] (beagle, plasma, dog IV 1 mg/kg) was 8.1 ± 1.4 h; in data set [6] (beagle, plasma, dog PO 4 mg/kg), 8.8 ± 2.5 h. Further, the AUC(0-inf) in data set [6] (beagle, dog IV 1 mg/kg, plasma) turned out to be 117 ± 43.6 ng·h/mL; in data set [6] (beagle, dog PO 4 mg/kg, plasma), 103 ± 13 ng·h/mL. The compound also gave a BA in data set [6] (dog PO 4 mg/kg vs IV 1 mg/kg) of 21.6%.
